How the values were obtained:
[1] = target: Free fatty acid receptor 1 (Homo sapiens, UniProt O14842); assay: Agonist activity at GPR40 (unknown origin)
[2] = Hypoglycemic activity in normoglycemic ICR mouse assessed as blood glucose level at 30 mg/kg, po administered 30 mins prior to glucose challenge and measured at 1 hr post-compound administration by OGTT; format: ADME, organism-based; conditions: in vivo
[3] = Hepatotoxicity in HFD fed/STZ-treated diabetic C57BL/6 mouse model assessed as increase in AST level in blood at 30 mg/kg, po administered for 4 weeks; format: toxicity, organism-based; conditions: in vivo, 672 h
[4] = Hepatotoxicity in HFD fed/STZ-treated diabetic C57BL/6 mouse model assessed as increase in ALT level in blood at 30 mg/kg, po administered for 4 weeks; format: toxicity, organism-based; conditions: in vivo, 672 h
[5] = Hypoglycemic activity in normoglycemic ICR mouse at 90 mg/kg, po administered for 30 mins followed by glucose challenge and measured upto 120 mins by OGTT; format: ADME, organism-based; conditions: in vivo
[6] = Tmax in Sprague-Dawley rat at 10 mg/kg, po by LC-MS/MS analysis; format: ADME, organism-based; conditions: in vivo
[7] = AUC (0 to 24 hrs) in Sprague-Dawley rat at 10 mg/kg, po by LC-MS/MS analysis; format: ADME, organism-based; design: time < 24 hr, dose 10 mg/kg, route oral; conditions: in vivo
[8] = Clearance in Sprague-Dawley rat at 10 mg/kg, po by LC-MS/MS analysis; format: ADME, organism-based; conditions: in vivo
Mus musculus = assay: Glucose lowering activity in po dosed normoglycemic ICR mouse assessed as suppression of blood glucose level administered for 30 mins followed by glucose challenge and measured upto 120 mins by OGTT; format: functional, organism-based
[9] = Cmax in Sprague-Dawley rat at 10 mg/kg, po by LC-MS/MS analysis; format: ADME, organism-based; design: dose 10 mg/kg, route oral; conditions: in vivo
[10] = Half life in Sprague-Dawley rat at 10 mg/kg, po by LC-MS/MS analysis; format: ADME, organism-based; conditions: in vivo

Free fatty acid receptor 1, sequence (O14842 whole entry): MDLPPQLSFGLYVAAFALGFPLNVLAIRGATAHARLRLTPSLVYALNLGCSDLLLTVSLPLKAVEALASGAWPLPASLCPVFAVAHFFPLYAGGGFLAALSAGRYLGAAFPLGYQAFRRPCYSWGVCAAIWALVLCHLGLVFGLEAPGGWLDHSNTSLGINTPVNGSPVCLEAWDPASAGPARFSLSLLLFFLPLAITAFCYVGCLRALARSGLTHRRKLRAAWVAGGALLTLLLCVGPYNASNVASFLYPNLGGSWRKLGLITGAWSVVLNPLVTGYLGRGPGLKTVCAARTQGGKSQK

SMILES	EC50 [1] [nM]	Activity [2]	Activity [3]	Activity [4]	other results
CC#CC(CC(=O)O)c1ccc(OCc2ccc3nc(-c4ccc(C)cc4)cn3c2)cc1 (configuration not stated)	507				
CC#CC(CC(=O)O)c1ccc(OCc2ccn3cc(-c4ccccc4OCC)nc3c2)cc1 (configuration not stated)	231	Non-Toxic			
CC#CC(CC(=O)O)c1ccc(OCc2ccc3nc(-c4ccc(C)cc4C)cn3c2)cc1 (configuration not stated)	316				
Cc1cc(OCCCS(C)(=O)=O)cc(C)c1-c1cccc(COc2ccc3c(c2)OC[C@H]3CC(=O)O)c1			Toxic	Toxic	
CC#CC(CC(=O)O)c1ccc(OCc2ccc3nc(-c4ccc(OC)cc4)cn3c2)cc1 (configuration not stated)	47	Non-Toxic	Non-Toxic	Non-Toxic	Activity [5]: Non-Toxic; Tmax [6]: 8.26 h; AUC(0-t) at 24 h [7]: 288 µg·h/mL; CL/F [8]: 0.454 mL/min/kg; Activity (Mus musculus): Dose-dependent effect; Cmax [9]: 16300 ng/mL; half-life [10]: 356 min

From ChEMBL document CHEMBL4622922, “Discovery of novel potent GPR40 agonists containing imidazo[1,2-a]pyridine core as antidiabetic agents” (Bioorg Med Chem, 2020)
